Literature values as cited in patent US20200354402A1, “PEPTIDE COMPOSITIONS AND RELATED METHODS” (Allegro Pharmaceuticals, LLC, priority 2017, published 2020).

Test system: ischemia-induced retinal neovascularization
Conditions: intravitreal injection; stated as known

## R—G—E.TFA [Test Compound 21]
  known activity of the control peptides: known to be inactive
